Patent publication US10548319B2, “Compositions and methods for synthetic amphiphile-induced changes in plant root morphology” (The Curators of the University of Missouri, priority 2014, dated 2020)
Where “and” joins values, the source holds several entries; their conditions need not be identical. Identical values can stand only once. Like-named read-outs stand apart in the source and are kept apart here. * marks the point of attachment. (CH3(CH2)17)2NCOCH2OCH2CO = CCCCCCCCCCCCCCCCCCN(CCCCCCCCCCCCCCCCCC)C(=O)COCC(=O)*; (C12H25)2NCOCH2CH2CO = CCCCCCCCCCCCN(CCCCCCCCCCCC)C(=O)CCC(=O)*; (C12)2NCOCH2CH2CO = CCCCCCCCCCCCN(CCCCCCCCCCCC)C(=O)CCC(=O)*; OC7 = heptyl ester (C-terminal), CCCCCCCO*; O(CH2)6CH3 = CCCCCCCO*; OC7H15 = CCCCCCCO*

System: A. thaliana (Col-0) plant
Format: in vivo, Arabidopsis thaliana
Conditions: for Decrease in primary root length: vs PNS
Text: The effect treating a plant with a composition comprising a synthetic amphiphile on root morphology or other physical characteristics or attributes can be quantitated. For example, a change in primary root length can be determined by measuring the difference, if any, in primary root length of a plant treated with the composition compared to the average of a control sample of plants of the same type grown under identical conditions in the absence of the composition. A change in lateral root density can be determined by comparing the lateral root density of a plant treated with the composition to the average lateral root density of a sample grown under identical conditions in the absence of the composition. Lateral root density can be determined by dividing the number of lateral roots by the length of the primary root. In certain embodiments for any quantitated characteristic or attribute, the average value of the control is the average of a statistically significant population of control plants. For example, in certain illustrative embodiments disclosed herein, three trials of about 20 plants each were used to determine the average of the control.
Illustrative of certain embodiments, approximately 60 plants were grown on PNS media (no additives) and root lengths and the number of lateral roots were recorded for each. The data points were averaged to obtain the following baseline values: primary root length=40.4±3.8 mm and number of lateral roots=6.1±0.8, respectively. The lateral root density was obtained by dividing the number of lateral roots by the length (in mm) of the primary root. The control value was (6.1/[…]=) 0.15.
Test compounds were added to the growth medium as 0.2% by volume DMSO. […]
To make 500 mL PN media, 485 mL doubly distilled (“dd”) H2O was first added to an autoclave beaker. The following salts and nutrients were added to a beaker and mixed well: 5 mL of 250 mM of KPO4 (pH 5.5), 2.5 mL of 1M KNO3, 1 mL of 1M MgSO4, 1 mL of 1M Ca(NO3)2, 0.5 mL of Ferric EDTA (1000× or 49 mM) and 0.5 mL of Micronutrients (1000×). In a 1 L autoclaved bottle, 0.6% (3 g) of bacteriological agar was added, followed by 500 mL solution prepared above. The media was autoclaved using the Liquid-30 program.
PNS plates were used for plating sterile Arabidopsis thaliana (Columbia-0) seeds. A sterile stock of PNS agar was maintained. Sterile sucrose was added to PN media to make PNS media. To make PNS media containing 0.5% sucrose, 5 mL of 50% sucrose (sterile filtered) was added to 500 mL of PN agar and mixed well.
The stored PNS media was liquefied using a water bath and allowed to cool to 55° C. The type of plates, compounds, and concentrations to be used were confirmed while the media cooled. The plates were labeled on the cover and the bottom with all the relevant information. 50 mL sterile centrifuge tubes were used to measure 29,940 μL (29.94 mL) PNS media. A fresh sterile 50 mL tube was used for each plate. The desired amount and concentration of compound was added to the PNS media, mixed by inverting the tube and poured in the plate. Total volume of media and compound in each plate was kept constant at 30 mL. A maximum of 60 μL (0.2% by volume) compound was added per plate. For example: 60 μL of 25 mM compound was added to 29.94 mL PNS media to get final concentration of 50 μM compound in PNS media. Plates were incubated at room temperature for 2 hours before plating seeds on them.
Hands and bench area were washed thoroughly before beginning. Sterilizing solution was prepared in a sterile 15 mL centrifuge tube, by mixing 5 mL of 30% bleach and 5 μL of 10% Triton X-100. A. thaliana Col-0 seeds were added to sterile 1.5 mL micro-centrifuge tube. 500 μL of sterilizing solution (30% bleach+0.01% Triton X-100) was added to the seeds, vortexed for 3 seconds and incubated at room temperature for 8 minutes. After 8 minutes, bleach was removed and 1 mL autoclaved MilliQ water was added. […]

[1] = Table 2, 20 μM in PNS, no unit in table (method: millimeters)
[2] = Table 2, 50 μM in PNS, no unit in table (method: millimeters)
[3] = 100 nM in PNS, positive control

Row | Compound | Lateral root density (Table 2, 20 μM) | Number lateral roots (Table 2, 20 μM) | Percent decrease 1° root (Table 2, 20 μM) [%] | Primary root length [1] [mm] | Lateral root density (Table 2, 50 μM) | Number lateral roots (Table 2, 50 μM) | Percent decrease 1° root (Table 2, 50 μM) [%] | Primary root length [2] [mm] | also measured
1 | CCCCCCCCCCCCC(=O)N1CCOCCOCCN(C(=O)CCCCCCCCCCCC)CCOCCOCC1 [C13 lariat ether amide] | 0.14 | 5.1 | 11.8 | 36.9 | 0.14 | 4.2 | 14.9 | 35.6 | –
2 | CCCCCCCCN1CCOCCOCCN(CCCCCCCC)CCOCCOCC1 [C8 lariat ether, N,N′-Di-n-octyl-4,13-diaza-18-crown-6] | 0.64 | 5.1 | 83.4 | 6.8 | 1.38 | 2.2 | 96.1 | 1.6 | Lateral root density with increasing concentration (0 μM to 50 μM, FIG. 7): Linear increase in lateral root density; Change in root morphology (lariat ether 20 μM): significant change in root morphology
3 | CCCCCC(=O)N1CCOCCOCCN(C(=O)CCCCC)CCOCCOCC1 [C6 lariat ether amide] | – | – | – | – | 0.15 | 5.6 | 4.9 | 38.6 | –
4 | CCCCCCCCC(=O)N1CCOCCOCCN(C(=O)CCCCCCCC)CCOCCOCC1 [C9 lariat ether amide] | 0.19 | 1.6 | 78.2 | 9.2 | 0.13 | 2 | 62.6 | 15.7 | –
5 | CCCCCCC(=O)N1CCOCCOCCN(C(=O)CCCCCC)CCOCCOCC1 [C7 lariat ether amide] | 0.21 | 4.5 | 45.3 | 22.9 | 0.65 | 4.2 | 82.5 | 7.3 | –
6 | c1ccc(CN2CCOCCOCCN(CCCCCCCCCCCCCCCCN3CCOCCOCCN(CCCCCCCCCCCCCCCCN4CCOCCOCCN(Cc5ccccc5)CCOCCOCC4)CCOCCOCC3)CCOCCOCC2)cc1 [C16 hydraphile (3)] | – | – | – | – | – | – | – | – | Primary root length (hydraphile 10 μM in PNS media): 23 ± 0.4 mm; Primary root length (hydraphile 10 μM in PNS media, listed as compound 3): 23±0.4 mm; Decrease in primary root length (hydraphile 10 μM): 39%; Primary root length (hydraphile 20 μM in PNS media): 15 ± 0.5 mm; Primary root length (hydraphile 20 μM in PNS media, listed as compound 3): 15±0.5 mm; Decrease in primary root length (hydraphile 20 μM): 61%; Effect on growth / root development (hydraphile 50 μM in PNS media): inhibit the primary root development; Primary root length (hydraphile 50 μM in PNS media): 4 ± 0.2 mm; Primary root length (hydraphile 50 μM in PNS media, listed as compound 3): 4±0.2 mm; Decrease in primary root length (hydraphile 50 μM): 90%
7 | (C12H25)2NCOCH2CH2CO-GGGPSGS-OC7H15 ({(C12H25)2NCOCH2CH2CO}-GGGPSGS-OC7H15; SMILES CCCCCCCCCCCCN(CCCCCCCCCCCC)C(=O)CCC(=O)NCC(=O)NCC(=O)NCC(=O)N1CCC[C@H]1C(=O)N[C@@H](CO)C(=O)NCC(=O)N[C@@H](CO)C(=O)OCCCCCCC) [Compound 15] | – | – | – | – | – | – | – | – | Effect on number of lateral roots relative to control (SAT 50 μM): does not show such a dramatic effect; Effect on primary root length relative to control (SAT 50 μM): dramatic reduction in primary root length; Overall effect on growth / root morphology relative to control (SAT 50 μM): shorter primary root and new lateral roots; Lateral root density (SAT 50 μM in PNS): 0.51 ± 0.03; Number of lateral roots (SAT 50 μM in PNS): 4.5 ± 0.4; Primary root length (SAT 50 μM in PNS): 9.0 ± 1.2 mm
8 | CCCCCCCC(=O)N1CCOCCOCCN(C(=O)CCCCCCC)CCOCCOCC1 [C8 lariat ether amide, N,N′-Dioctanoyl-4,13-diaza-18-crown-6] | – | – | – | – | 0.17 | 5.2 | 23.2 | 31.2 | –
9 | CCCCCCCCCC(=O)N1CCOCCOCCN(C(=O)CCCCCCCCC)CCOCCOCC1 [C10 lariat ether amide, N,N′-Didecanoyl-4,13-diaza-18-crown-6] | – | – | – | – | 0.19 | 0.6 | 92.4 | 3.1 | –
10 | [CH3(CH2)17]2NCOCH2OCH2CO-Gly-Gly-Gly-Pro-Gly-Gly-Gly-O(CH2)6CH3 ({(CH3(CH2)17)2NCOCH2OCH2CO}-GGGPGGG-{O(CH2)6CH3}; SMILES CCCCCCCCCCCCCCCCCCN(CCCCCCCCCCCCCCCCCC)C(=O)COCC(=O)NCC(=O)NCC(=O)NCC(=O)N1CCC[C@H]1C(=O)NCC(=O)NCC(=O)NCC(=O)OCCCCCCC) [Compound 9] | – | – | – | – | – | – | – | – | Effect on number of lateral roots relative to control (SAT 50 μM): within experimental error of the PNS control; Effect on primary root length relative to control (SAT 50 μM): within experimental error of the PNS control; Lateral root density (SAT 50 μM in PNS): 0.17 ± 0.02; Number of lateral roots (SAT 50 μM in PNS): 6.8 ± 1.3; Primary root length (SAT 50 μM in PNS): 40.5 ± 3.4 mm
11 | CCCCCCN1CCOCCOCCN(CCCCCC)CCOCCOCC1 [C6 lariat ether] | 0.18 | 6.6 | 5.9 | 38.3 | 0.14 | 4.6 | 18.8 | 33 | –
12 | CCCCCCCCCCCCCCN1CCOCCOCCN(CCCCCCCCCCCCCC)CCOCCOCC1 [C14 lariat ether] | 0.17 | 6.9 | 0 | 41.5 | 0.21 | 4.9 | 48.4 | 20.9 | –
13 | O=C(O)COc1ccc(Cl)cc1Cl [2,4-D, 2,4-Dichlorophenoxyacetic acid, reference compound] | – | – | – | – | – | – | – | – | Lateral root density [3]: 0.85 and 0.85 ± 0.12; Number of lateral roots [3]: 3.4±0.6; Primary root length [3]: 3.9±0.6 mm
14 | c1ccc(CN2CCOCCOCCN(CCCCCCCCCCCCCCN3CCOCCOCCN(CCCCCCCCCCCCCCN4CCOCCOCCN(Cc5ccccc5)CCOCCOCC4)CCOCCOCC3)CCOCCOCC2)cc1 [C14 hydraphile (2)] | – | – | – | – | – | – | – | – | Number of lateral roots (hydraphile 20 μM): 6.2±0.3; Primary root length (hydraphile 20 μM in PNS media): 14 ± 2 mm; Primary root length (hydraphile 20 μM in PNS media, listed as compound 2): 14±2 mm; Decrease in primary root length (hydraphile 20 μM): 63%; Increase in lateral root density (hydraphile 20 μM, vs control): 4 fold; Lateral root density (hydraphile 20 μM, lateral roots divided by primary root length): 0.48±0.08; Primary root length (hydraphile 50 μM in PNS media): 0.7 ± 0.2 mm; Primary root length (hydraphile 50 μM in PNS media, listed as compound 2): 0.7±0.2 mm; Decrease in primary root length (hydraphile 50 μM): 98%
15 | CCCCCCCCCCCCCC(=O)N1CCOCCOCCN(C(=O)CCCCCCCCCCCCC)CCOCCOCC1 [C14 lariat ether amide] | – | – | – | – | 0.21 | 8.6 | 0 | 41.9 | –
16 | (C12)2NCOCH2CH2CO-AAAPGGG-OC7 ({(C12)2NCOCH2CH2CO}-AAAPGGG-OC7; SMILES CCCCCCCCCCCCN(CCCCCCCCCCCC)C(=O)CCC(=O)N[C@@H](C)C(=O)N[C@@H](C)C(=O)N[C@@H](C)C(=O)N1CCC[C@H]1C(=O)NCC(=O)NCC(=O)NCC(=O)OCCCCCCC) [Compound 10] | – | – | – | – | – | – | – | – | Lateral root density (SAT 50 μM in PNS): 0.12; Number of lateral roots (SAT 50 μM in PNS): 3.4; Primary root length (SAT 50 μM in PNS): 28.4 mm
17 | CCCCCCCCCCCC(=O)N1CCOCCOCCN(C(=O)CCCCCCCCCCC)CCOCCOCC1 [C12 lariat ether amide] | – | – | – | – | 0.18 | 7 | 1.73 | 39.9 | –
